Data set [1] deals with T1, Tyrosine-protein kinase Fyn (Homo sapiens, UniProt P06241). In words: Inhibition of amyloid beta-induced Fyn activation in hiPSC neural cells assessed as reduction in tau phosphorylation at Thr 181 residue at 10 uM measured after 4 days by DAPI/Alexa fluor 594 staining based immunocytochemistry analysis. As to conditions: Induced pluripotent stem cell-derived neuron, time 4.0 day.
Target sequence in this assay (P06241 2-537 limits assumed): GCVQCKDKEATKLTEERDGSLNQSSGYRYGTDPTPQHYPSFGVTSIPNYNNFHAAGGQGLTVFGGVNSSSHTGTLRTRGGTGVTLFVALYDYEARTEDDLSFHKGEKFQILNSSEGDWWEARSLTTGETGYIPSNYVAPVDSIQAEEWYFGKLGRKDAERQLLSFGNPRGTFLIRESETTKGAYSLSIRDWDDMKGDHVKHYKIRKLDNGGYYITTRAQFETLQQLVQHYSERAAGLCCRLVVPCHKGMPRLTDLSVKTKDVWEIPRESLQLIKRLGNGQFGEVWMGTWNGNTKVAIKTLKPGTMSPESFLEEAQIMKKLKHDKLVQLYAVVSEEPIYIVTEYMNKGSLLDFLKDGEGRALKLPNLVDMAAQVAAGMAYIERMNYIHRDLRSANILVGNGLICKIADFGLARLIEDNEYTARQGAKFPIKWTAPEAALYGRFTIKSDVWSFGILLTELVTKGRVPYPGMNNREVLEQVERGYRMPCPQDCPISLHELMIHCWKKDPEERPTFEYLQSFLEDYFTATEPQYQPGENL

Data set [2] addresses T1, Tyrosine-protein kinase Fyn. In words: Inhibition of basal Fyn activation in hiPSC neural progenitor cells assessed as reduction in pFyn levels in absence of amyloid beta at 10 uM by DAPI staining based immunofluorescence assay. As to conditions: induced pluripotent stem cell-derived neuron.
Target sequence in this assay (P06241 whole entry): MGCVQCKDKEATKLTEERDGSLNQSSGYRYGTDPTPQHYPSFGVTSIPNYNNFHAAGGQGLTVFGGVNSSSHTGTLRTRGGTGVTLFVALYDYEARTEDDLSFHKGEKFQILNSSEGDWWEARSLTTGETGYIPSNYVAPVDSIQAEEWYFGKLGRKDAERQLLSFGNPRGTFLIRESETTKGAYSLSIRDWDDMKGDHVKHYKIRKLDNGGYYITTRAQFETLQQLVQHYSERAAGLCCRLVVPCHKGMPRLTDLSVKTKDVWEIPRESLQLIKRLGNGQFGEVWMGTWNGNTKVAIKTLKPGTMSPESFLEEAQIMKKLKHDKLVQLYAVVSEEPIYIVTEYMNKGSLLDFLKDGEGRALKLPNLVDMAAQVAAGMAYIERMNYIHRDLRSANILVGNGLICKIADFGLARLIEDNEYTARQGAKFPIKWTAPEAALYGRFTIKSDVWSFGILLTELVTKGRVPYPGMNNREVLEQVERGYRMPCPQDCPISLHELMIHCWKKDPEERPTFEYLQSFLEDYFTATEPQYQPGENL
For data set [3] the following is noted: buffer, 100 µM.
For data set [4], the target named is T1, Tyrosine-protein kinase Fyn. In words: Inhibition of natural amyloid beta (1 to 42) -induced Fyn activation in hiPSC neural progenitor cells assessed as reduction in Fyn production at 10 uM preincubated fot 45 mins followed by amyloid beta addition and measured after 15 mins by DAPI/Alexa fluor 594 immunostaining based assay. The following applies: Induced pluripotent stem cell-derived neuron, time 60.0 min.
Target sequence in this assay (P06241 2-537 limits assumed): as the sequence (P06241 2-537 limits assumed) above

Data set [5] in a line: Membrane retention of compound at pH 7.4 incubated for 16 hrs by PAMPA assay. The class given is ADME. The following applies: pH 7.4, 16 h.
Data set [6] in a line: Octanol/water partition coefficient, log D of compound at pH 7.4 at 1 uM incubated for 2 hrs by LC-MS analysis. Format: physicochemical.
A short description of data set [7]: Membrane retention of compound assessed as partial membrane retention at pH 7.4 by LC-MS based PAMPA assay. The class given is ADME. A general note: PAMPA measures passive passage across an artificial lipid membrane.
Data set [8] deals with Amyloid-beta precursor protein (Homo sapiens) (UniProt P05067). In words: Inhibition of human amyloid beta (1 to 42) self-induced aggregation at 50 uM by Thioflavin T based fluorometric assay.
In data set [9] the target is Acetylcholinesterase (Electrophorus electricus) (UniProt O42275). In words: Inhibition of electric eel AChE at 100 uM using acetylthiocholine iodide as substrate by Ellman's colorimetric analysis relative to control.
The nature of data set [10]: Aqueous solubility of the compound in 5 % DMSO at 50 to 100 uM incubated for 2 hrs. Format: physicochemical. The following applies: buffer, dose 50-100 µM.
Data set [11] in a line: Cytotoxicity against hiPSC neural cells assessed as reduction in cell viability at 10 uM incubated for 24 hrs by MTT assay. Format: cell-based. The following applies: human, induced pluripotent stem cell-derived neuron.
The target of data set [12] is Cholinesterase (Equus caballus) (UniProt P81908). In words: Inhibition of equine serum BuChE at 100 uM using butyrylthiocholine iodide as substrate by Ellman's colorimetric analysis relative to control. A general note: In Ellman's method for cholinesterases, released thiocholine reacts with DTNB.
A short description of data set [13]: Competitive inhibition of almond beta-glucosidase using p-nitrophenyl glycosides as substrate measured for 125 secs by spectrophotometry analysis. More on the design: species or system Prunus dulcis.
The nature of data set [14]: Uncompetitive inhibition of Saccharomyces cerevisiae alpha-glucosidase assessed as inhibition constant for inhibitor-substrate-enzyme complex formation using p-nitrophenyl glycosides as substrate measured for 125 secs by spectrophotometry analysis.
The subject of another data set is Prunus dulcis. In words: Competitive inhibition of almond beta-glucosidase at 100 uM using p-nitrophenyl glycosides as substrate measured for 125 secs by spectrophotometry analysis relative to control. As to conditions: time 125.0 sec.
Another data set concerns Saccharomyces cerevisiae. In words: Uncompetitive inhibition of Saccharomyces cerevisiae alpha-glucosidase at 100 uM using p-nitrophenyl glycosides as substrate measured for 125 secs by spectrophotometry analysis relative to control. As to conditions: time 125.0 sec.

pKi: −log10 of the molar value. The source made the active and inactive calls. The rule behind the calls is not given here.

The results in this text go back to ChEMBL document CHEMBL4665828, “Glucosylpolyphenols as Inhibitors of Aβ-Induced Fyn Kinase Activation and Tau Phosphorylation: Synthesis, Membrane Permeability, and Exploratory Target Assessment within the Scope of Type 2 Diabetes and Alzheimer's Disease” (J Med Chem, 2020).

Broadly, the inhibition is how much of the control response was suppressed. The term logD denotes the decadic logarithm of the distribution of all forms, ionised or not, between an organic phase and buffer at a given pH. Low readings indicate lower lipophilicity, high ones higher lipophilicity. By pKi is commonly meant −log10 of the Ki, conventionally taken in molar units.

Cholinesterase (Equus caballus), sequence (P81908 whole entry): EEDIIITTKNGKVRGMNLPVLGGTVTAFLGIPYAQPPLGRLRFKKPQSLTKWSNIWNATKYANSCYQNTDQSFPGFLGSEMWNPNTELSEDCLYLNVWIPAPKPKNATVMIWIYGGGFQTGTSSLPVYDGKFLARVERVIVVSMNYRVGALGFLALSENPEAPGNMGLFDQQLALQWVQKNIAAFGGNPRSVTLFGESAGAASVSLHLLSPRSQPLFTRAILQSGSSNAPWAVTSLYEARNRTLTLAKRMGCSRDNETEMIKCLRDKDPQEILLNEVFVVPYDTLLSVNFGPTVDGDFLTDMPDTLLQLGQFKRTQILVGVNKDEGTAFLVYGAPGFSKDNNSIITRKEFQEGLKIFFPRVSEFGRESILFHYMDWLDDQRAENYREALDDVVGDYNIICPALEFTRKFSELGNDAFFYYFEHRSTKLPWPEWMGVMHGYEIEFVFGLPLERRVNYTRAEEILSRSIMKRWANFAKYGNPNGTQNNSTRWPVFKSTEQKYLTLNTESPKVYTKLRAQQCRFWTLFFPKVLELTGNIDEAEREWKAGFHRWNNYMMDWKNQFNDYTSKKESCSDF
Acetylcholinesterase (Electrophorus electricus), sequence (O42275 24-633 limits assumed): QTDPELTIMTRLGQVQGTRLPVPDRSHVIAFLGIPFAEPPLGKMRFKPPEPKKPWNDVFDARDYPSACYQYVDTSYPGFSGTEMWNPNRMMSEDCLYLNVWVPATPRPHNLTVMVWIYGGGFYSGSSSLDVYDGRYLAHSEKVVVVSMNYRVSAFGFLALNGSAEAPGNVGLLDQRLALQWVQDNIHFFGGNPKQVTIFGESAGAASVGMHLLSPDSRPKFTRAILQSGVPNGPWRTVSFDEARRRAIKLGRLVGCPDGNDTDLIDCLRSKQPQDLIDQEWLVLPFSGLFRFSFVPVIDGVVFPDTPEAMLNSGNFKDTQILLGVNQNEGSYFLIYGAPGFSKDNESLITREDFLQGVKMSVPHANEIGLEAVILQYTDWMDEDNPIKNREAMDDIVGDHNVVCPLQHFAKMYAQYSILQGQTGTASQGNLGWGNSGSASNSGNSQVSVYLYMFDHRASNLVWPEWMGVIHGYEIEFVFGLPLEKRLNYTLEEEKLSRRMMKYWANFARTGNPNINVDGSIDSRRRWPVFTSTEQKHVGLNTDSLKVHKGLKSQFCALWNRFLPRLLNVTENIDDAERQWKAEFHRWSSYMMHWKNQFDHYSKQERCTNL
Amyloid-beta precursor protein (Homo sapiens), sequence (P05067 whole entry): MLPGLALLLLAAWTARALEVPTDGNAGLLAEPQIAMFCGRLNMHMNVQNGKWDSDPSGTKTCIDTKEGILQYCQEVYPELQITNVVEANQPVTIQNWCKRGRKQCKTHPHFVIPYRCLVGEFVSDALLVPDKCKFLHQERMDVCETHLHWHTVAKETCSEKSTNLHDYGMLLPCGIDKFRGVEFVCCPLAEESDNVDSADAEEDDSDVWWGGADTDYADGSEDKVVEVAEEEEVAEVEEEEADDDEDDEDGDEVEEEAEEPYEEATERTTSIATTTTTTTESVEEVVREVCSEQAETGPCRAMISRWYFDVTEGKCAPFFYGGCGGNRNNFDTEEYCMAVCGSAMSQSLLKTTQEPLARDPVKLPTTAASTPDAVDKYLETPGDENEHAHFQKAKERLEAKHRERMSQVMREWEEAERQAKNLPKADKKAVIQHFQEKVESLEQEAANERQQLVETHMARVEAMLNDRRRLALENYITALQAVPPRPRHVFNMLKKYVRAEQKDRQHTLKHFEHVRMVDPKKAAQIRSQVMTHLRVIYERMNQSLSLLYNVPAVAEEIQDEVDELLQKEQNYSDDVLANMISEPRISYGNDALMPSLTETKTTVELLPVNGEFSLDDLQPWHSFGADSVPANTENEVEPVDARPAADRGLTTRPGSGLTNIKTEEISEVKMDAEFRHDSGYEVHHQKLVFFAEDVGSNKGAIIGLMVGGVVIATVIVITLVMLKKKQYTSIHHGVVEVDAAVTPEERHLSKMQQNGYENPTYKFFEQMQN

Turning to `COC[C@H]1O[C@@H](c2ccc(OC(=O)c3ccccc3)c(OC(=O)c3ccccc3)c2)[C@H](OC)[C@@H](OC)[C@@H]1OC`, the inhibition result in data set [1] and in [4] was “Active” throughout. In addition, the “inhibition (INH)” value in data set [2] is “Not Active”. Also, the solubility entry in [3] and in data set [10] was “Insoluble” in each case. For the same compound, the Drug uptake entry in data set [5] and in data set [7] was “Active” each time. Besides, the logD at 2 h, 1 µM in data set [6] is > 2.5. In addition, the inhibition entry in data set [8] and in data set [9] was “inactive” in each case. The Activity result in data set [11] is recorded as “Non-Toxic”. Further, in [12], the inhibition is 12%.
As for `O=c1c(-c2ccc(O)cc2)coc2cc(O)cc(O)c12` [GENISTEIN], the pKi in [13] is 4.18; in data set [14] it was 4.92. Moreover, the inhibition entry in [1] and in data set [4] was “Active” each time. In [6], this compound registered a logD at 2 h, 1 µM of 3.3. For the same compound, the inhibition amounted to 12% in data set [9], 44% with Prunus dulcis, 84% in the data set with Saccharomyces cerevisiae and 41% in data set [12]. Also, in data set [11], the Activity entry is recorded as “Non-Toxic”.
